Patent publication US5356916A, “1,2,4-oxadiazole derivatives having monoamine oxidase B enzyme-inhibitory activity” (Wakamoto Pharmaceutical Co., Ltd., priority 1991, dated 1994)
pIC50: −log10 of the molar value. Like-named read-outs stand apart in the source and are kept apart here.

Tests used:
[1] = molecular target: T1, MAO-B (Rattus norvegicus, UniProt P19643); experiment: In vitro inhibition of monoamine oxidase B (oxygen electrode, rat liver mitochondria, substrate benzylamine); assay type: biochemical; details: for MAO-A/MAO-B: ratio of IC50 values MAO-A/MAO-B
T1 construct: mitochondria prepared from the liver of rats; from tissue; host or cells: rat liver mitochondria
T1 sequence (P19643 1-520): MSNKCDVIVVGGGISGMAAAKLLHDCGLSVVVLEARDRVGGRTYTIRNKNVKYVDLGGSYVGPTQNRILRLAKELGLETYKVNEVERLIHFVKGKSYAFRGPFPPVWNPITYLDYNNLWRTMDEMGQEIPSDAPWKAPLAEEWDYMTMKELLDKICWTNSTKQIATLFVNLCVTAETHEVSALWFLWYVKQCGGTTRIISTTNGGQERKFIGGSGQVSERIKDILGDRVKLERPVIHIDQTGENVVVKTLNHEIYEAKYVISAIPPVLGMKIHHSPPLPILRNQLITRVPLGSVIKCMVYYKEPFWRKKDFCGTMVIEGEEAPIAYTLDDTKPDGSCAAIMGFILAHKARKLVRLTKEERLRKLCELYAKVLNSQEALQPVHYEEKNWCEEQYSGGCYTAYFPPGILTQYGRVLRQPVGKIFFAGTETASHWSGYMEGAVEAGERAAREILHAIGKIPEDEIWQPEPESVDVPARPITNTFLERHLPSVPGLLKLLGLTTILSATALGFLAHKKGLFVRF
Protocol: (§1) The MAO-inhibitory activity of the compounds of the present invention was determined according to an MAO-inhibitory activity determining method using the oxygen electrode disclosed in K. F. Tipton et al., Biochem. J., 1968,108, pp. 95-99.
(§2) A potassium phosphate buffer solution of mitochondria prepared from the liver of rats was preincubated at 37° C. with or without a compound of the present invention and then a substrate was added to the mixture to thus initiate the reaction at that temperature while the dissolved oxygen-consuming reaction due to MAO activity in the reaction solution was monitored by the oxygen electrode. In this respect, the substrates used were serotonin (5-HT) for the MAO-A activity determination and benzylamine (BA) for the MAO-B activity determination. The MAO-inhibitory activity was evaluated in terms of an IC5.sbsb.0 value which is the concentration of a compound tested required for reducing the rate of oxygen-consuming reaction performed in the presence of the compound to 50% of that of the reaction performed in the absence of the compound.

[2] = molecular target: T2, MAO-A (Rattus norvegicus, UniProt P21396); experiment: In vitro inhibition of monoamine oxidase A (oxygen electrode, rat liver mitochondria, substrate serotonin); assay type: biochemical
T2 construct: mitochondria prepared from the liver of rats; from tissue; host or cells: rat liver mitochondria
T2 sequence (P21396 1-526): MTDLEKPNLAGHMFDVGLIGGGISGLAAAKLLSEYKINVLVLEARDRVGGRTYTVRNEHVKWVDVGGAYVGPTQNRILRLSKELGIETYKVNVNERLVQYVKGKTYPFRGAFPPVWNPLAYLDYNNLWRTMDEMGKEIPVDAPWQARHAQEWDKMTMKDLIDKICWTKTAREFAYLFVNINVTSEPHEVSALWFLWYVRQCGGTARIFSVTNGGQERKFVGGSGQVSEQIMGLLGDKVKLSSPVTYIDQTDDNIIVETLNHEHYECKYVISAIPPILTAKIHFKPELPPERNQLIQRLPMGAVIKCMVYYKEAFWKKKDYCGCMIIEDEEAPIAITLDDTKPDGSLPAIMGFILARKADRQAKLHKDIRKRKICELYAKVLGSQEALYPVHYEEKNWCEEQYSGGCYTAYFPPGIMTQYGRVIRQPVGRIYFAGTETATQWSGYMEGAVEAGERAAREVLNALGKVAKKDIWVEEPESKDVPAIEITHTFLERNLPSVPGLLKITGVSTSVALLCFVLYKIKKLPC
Protocol: as §1, §2

[3] = rat liver mitochondria, 37° C., preincubated, substrate benzylamine (BA), read-out: IC50 MAO-B
[4] = rat liver mitochondria, 37° C., preincubated, substrate serotonin (5-HT), read-out: IC50 MAO-A

Row | SMILES | pIC50 [1, 3] | MAO-A/MAO-B [1] | pIC50 [2, 4] | pIC50 [1] | pIC50 [2]
1 | CCc1nc(-c2ccc(OCCCN3CCOCC3)cc2)no1 [Example 11, 3-[4-(3-morpholinopropoxy)phenyl]-5-ethyl-1,2,4-oxadiazole] | 4.00 | 2 | 3.70 |  | 
2 | FC(F)(F)C(F)(F)C(F)(F)c1nc(-c2ccc(OCCCn3ccnc3)cc2)no1 [Example 23, 3-[4-[3-(1H-imidazol-1-yl)propoxy]phenyl]-5-hepta-fluoropropyl-1,2,4-oxadiazole] |  | 21 |  | 5.33 | 4.00
3 | CCCOc1ccc(-c2noc(CC)n2)cc1 [Example 16, 3-(4-propoxy)phenyl-5-ethyl-1,2,4-oxadiazole] | 5.00 | 4.8 | 4.32 |  | 
4 | CCCN(CCC)CCCOc1ccc(-c2noc(C)n2)cc1 [Example 25, 3-[4-(3-dipropylaminopropoxy)phenyl]-5-methyl-1,2,4-oxadiazole] | 6.00 | 100 | 4.00 |  | 
5 | FC(F)(F)c1nc(-c2ccc(OCCCn3ccnc3)cc2)no1 [Example 21, 3-[4-[3-(1H-imidazol-1-yl)propoxy]phenyl]-5-trifluoromethyl-1,2,4-oxadiazole] | 7.52 | 6700 | 3.70 |  | 
6 | CCc1nc(-c2ccc(OCCCn3cnc4ccccc43)cc2)no1 [Example 7, 3-[4-[3-(1H-benzimidazol-1-yl)propoxy]phenyl]-5-ethyl-1,2,4-oxadiazole] | 3.80 | 0.9 | 3.82 |  | 
7 | c1ccc(-c2nc(-c3ccc(OCCCn4ccnc4)cc3)no2)cc1 [Example 5, 3-[4-[3-(1H-imidazol-1-yl)propoxy]phenyl]-5-phenyl-1,2,4-oxadiazole] | 4.30 | 2 | 4.00 |  | 
8 | ClC(Cl)(Cl)c1nc(-c2ccc(OCCCn3ccnc3)cc2)no1 [Example 2, 3-[4-[3-(1H-imidazol-1-yl)propoxy]phenyl]-5-tri chloromethyl-1,2,4-oxadiazole] | 7.52 | 6700 | 3.70 |  | 
9 | CCc1nc(-c2ccc(OCCn3ccnc3)cc2)no1 [Example 18, 3-[4-[2-(1H-imidazol-1-yl)ethoxy]phenyl]-5-ethyl-1,2,4-oxadiazole] | 4.22 | 1.5 | 4.05 |  | 
10 | ClC(Cl)(Cl)c1nc(-c2ccc(OCc3ccccc3)cc2)no1 [Example 20, 3-(4-benzyloxy)phenyl-5-trichloromethyl-1,2,4-oxadiazole] |  | 11 |  | 5.02 | 4.00
11 | CNc1nc(-c2ccc(OCCCn3ccnc3)cc2)no1 [Example 32, 3-[4-[3-(1H-imidazol-1-yl)propoxy]phenyl]-5-methyl-amino-1,2,4-oxadiazole] | 5.92 | 92 | 3.96 |  | 
12 | FC(F)(F)C(F)(F)c1nc(-c2ccc(OCCCn3ccnc3)cc2)no1 [Example 22, 3-[4-[3-(1H-imidazol-1-yl)propoxy]phenyl]-5-penta-fluoroethyl-1,2,4-oxadiazole] | 7.05 | 1100 | 4.00 |  | 
13 | CCc1nc(-c2ccc(OCCCN(CC)CC)cc2)no1 [Example 8, 3-[4-(3-diethylaminopropoxy)phenyl]-5-ethyl-1,2,4-oxadiazole] | 4.60 | 4 | 4.00 |  | 
14 | CCc1nc(-c2ccc(OCCCN3CCCCC3)cc2)no1 [Example 12, 3-[4-(3-piperidinopropoxy)phenyl]5-ethyl-1,2,4-oxadiazole] | 4.00 | 1 | 4.00 |  | 
15 | CCc1nc(-c2ccc(OCCCn3ccnc3C)cc2)no1 [Example 6, 3-[4-[3-(2-methyl-1H-imidazol-1-yl)propoxy]phenyl]-5-ethyl-1,2,4-oxadiazole] | 3.82 | 1 | 3.82 |  | 
16 | CCc1nc(-c2ccc(OCCCN3C(=O)c4ccccc4C3=O)cc2)no1 [Example 10, 3-[4-(3-phthalimidopropoxy)phenyl]-5-ethyl-1,2,4-oxadiazole] | 4.00 | 1 | 4.00 |  | 
17 | O=C1CCCN1CCCOc1ccc(-c2noc(-c3ccccc3)n2)cc1 [Example 17, 3-[4-[3-(2-oxopyrrolidin-1-yl)propoxy]phenyl]-5-phenyl-1,2,4-oxadiazole] | 4.00 | 1 | 4.00 |  | 
18 | c1cn(CCCOc2ccc(-c3noc(C4CC4)n3)cc2)cn1 [Example 4, 3-[4-[3-(1H-imidazol-1-yl)propoxy]phenyl]-5-cyclo-propyl-1,2,4-oxadiazole] | 5.70 | 50 | 4.00 |  | 

Now from value to molecule, other results behind:

Row | pIC50 [1, 3] | MAO-A/MAO-B [1] | pIC50 [2, 4] | SMILES | pIC50 [1] | pIC50 [2]
19 | 5.10 | 13 | 4.00 | CCc1nc(-c2ccc(OCc3ccccc3)cc2)no1 [Example 19, 3-(4-benzyloxy)phenyl-5-ethyl-1,2,4-oxadiazole] |  | 
20 | 4.60 | 0.7 | 4.74 | CCCOc1ccc(-c2noc(C)n2)cc1 [Example 28, 3-(4-propoxy)phenyl-5-methyl-1,2,4-oxadiazole] |  | 
21 | 5.32 | 10 | 4.30 | Cc1nc(-c2ccc(OCc3ccccc3)cc2)no1 [Example 30, 3=(4-benzyloxy)phenyl-5-methyl-1,2,4-oxadiazole] |  | 
22 | 5.62 | 230 | 3.26 | Cc1nc(-c2ccc(OCCCn3ccnc3)cc2)no1 [Example 24, 3-[4-[3-(1H-imidazol-1-yl)propoxy]phenyl]-5-methyl-1,2,4-oxadiazole] |  | 
23 | 5.52 | 67 | 3.70 | Cc1nc(-c2ccc(OCc3cccc(Cl)c3)cc2)no1 [Example 31, 3-[4-(3-chlorobenzyloxy)phenyl]-5-methyl-1,2,4-oxadiazole] |  | 
24 | 4.66 | 5 | 3.96 | Cc1nc(-c2ccc(OCCCc3ccccc3)cc2)no1 [Example 29, 3-[4-(3-phenylpropoxy)phenyl]-5-methyl-1,2,4-oxadiazole] |  | 
25 | 3.70 | 1 | 3.70 | CCc1nc(-c2ccc(OCCCc3ccccc3)cc2)no1 [Example 15, 3-[4-(3-phenylpropoxy)phenyl]-5-ethyl-1,2,4-oxadiazole] |  | 
26 | 4.70 | 5 | 4.00 | CCc1nc(-c2ccc(OCCCc3cccnc3)cc2)no1 [Example 14, 3-[4-[3-(3-pyridyl)propoxy]phenyl]-5-ethyl-1,2,4-oxadiazole] |  | 
27 | 4.60 | 6.4 | 3.80 | Cc1nc(-c2ccc(OCc3ccncc3)cc2)no1 [Example 27, 3-[4-(4-pyridylmethyloxy)phenyl]-5-methyl-1,2,4-oxadiazole] |  | 
28 | 5.15 | 14 | 4.00 | CNc1nc(-c2ccc(OCc3ccccc3)cc2)no1 [Example 33, 3-(4-benzyloxyphenyl)-5-methylamino-1,2,4-oxadiazole] |  | 
29 | 4.52 | 3.3 | 4.00 | Cc1nc(-c2ccc(OCc3cccnc3)cc2)no1 [Example 26, 3-(4-(3-pyridylmethyloxy)phenyl]-5-methyl-1,2,4-oxadiazole] |  | 
